Results on 2 compounds are retold here after patent US7439243B2, “Piperazinyl-quinoline derivatives useful for the treatment of CNS disorders” (Glaxo Group Limited, priority 2003, dated 2008).

SMILES strings stand for the structures. Structures can show the parent of a compound that is named as a salt. Where two headings read alike, the source gives them in different places. A value given as a limit tells only on which side of the number the result lay.

The test addresses human cloned 5-HT6 receptors (Homo sapiens, UniProt P50406). In words: 5-HT6 receptor affinity (procedures outlined in WO98/27081). It is filed as binding. The text has this:
Compounds can be tested following the procedures outlined in WO98/27081.

Chain of human cloned 5-HT6 receptors (P50406 whole entry): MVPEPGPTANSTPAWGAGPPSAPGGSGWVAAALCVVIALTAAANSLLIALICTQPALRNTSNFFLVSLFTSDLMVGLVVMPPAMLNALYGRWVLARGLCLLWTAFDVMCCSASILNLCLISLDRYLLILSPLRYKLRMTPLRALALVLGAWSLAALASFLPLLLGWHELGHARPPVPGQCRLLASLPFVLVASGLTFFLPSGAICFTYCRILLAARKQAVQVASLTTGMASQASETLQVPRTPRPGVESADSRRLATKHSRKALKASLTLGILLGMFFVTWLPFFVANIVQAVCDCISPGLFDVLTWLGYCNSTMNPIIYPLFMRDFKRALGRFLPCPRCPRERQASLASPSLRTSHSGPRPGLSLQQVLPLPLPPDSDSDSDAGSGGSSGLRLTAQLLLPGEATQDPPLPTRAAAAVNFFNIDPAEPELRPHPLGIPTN

As for `Clc1cccc(Cc2cnc3c(N4CCNCC4)cccc3c2)c1` [Example E1, 3-[(3-Chlorophenyl)methyl]-8-(1-piperazinyl)quinoline hydrochloride], the Ki was less than 31.6 nM.

`O=C(c1cccc(Cl)c1)c1cnc2c(N3CCNCC3)cccc2c1` [Example E2, (3-Chlorophenyl)[8-(1-piperazinyl)-3-quinolinyl]methanone hydrochloride]: the Ki (human cloned 5-HT6 receptors, read-out: pKi (converted)) was less than 31.6 nM.
